Measured values reported in patent US20150225369A1, “DDR2 INHIBITORS FOR THE TREATMENT OF OSTEOARTHRITIS” (Merck Patent GmbH, priority 2012, published 2015).
Where two headings read alike, the source gives them in different places.

Tests used:
[1] = target: T1, His-tagged human recombinant DDR-2 kinase domain (His-TEV-DDR2 467-855 aa) (Homo sapiens, UniProt Q16832); assay: Autophosphorylation assay for biochemical activity testing of DDR2 (HTRF)
T1 construct: His-TEV-DDR2 467-855 aa
T1 sequence (Q16832 467-855): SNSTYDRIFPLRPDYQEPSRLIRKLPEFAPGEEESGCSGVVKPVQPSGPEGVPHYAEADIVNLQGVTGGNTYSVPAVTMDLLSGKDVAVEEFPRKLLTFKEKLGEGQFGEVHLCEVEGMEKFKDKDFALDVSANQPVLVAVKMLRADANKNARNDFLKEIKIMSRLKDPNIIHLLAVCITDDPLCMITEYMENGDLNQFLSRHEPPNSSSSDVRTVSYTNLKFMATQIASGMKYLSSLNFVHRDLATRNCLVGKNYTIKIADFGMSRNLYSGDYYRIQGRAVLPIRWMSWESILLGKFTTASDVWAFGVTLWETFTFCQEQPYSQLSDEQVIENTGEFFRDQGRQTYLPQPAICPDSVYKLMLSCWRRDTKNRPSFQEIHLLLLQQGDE
How it was run: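 Phospho-tyrosine was detected by HTRF between XL665 anti-6His and cryptate anti-phosphotyrosine PT66 antibodies, using the emission ratio. Inhibition was referenced to the inhibitor-free reaction.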

[2] = target: T2, HEK293 transfected with human DDR2 (Homo sapiens, UniProt Q16832); assay: Phospho-DDR2 cellular assay (collagen II induced DDR2 phosphorylation, ELISA); format: cell-based; conditions: read-out: IC50 [p-DDR2]
T2 construct: expressed in transfected cells; host or cells: HEK293 (PLT460F_(DDR2)-P7-1)
T2 sequence (Q16832 22-855): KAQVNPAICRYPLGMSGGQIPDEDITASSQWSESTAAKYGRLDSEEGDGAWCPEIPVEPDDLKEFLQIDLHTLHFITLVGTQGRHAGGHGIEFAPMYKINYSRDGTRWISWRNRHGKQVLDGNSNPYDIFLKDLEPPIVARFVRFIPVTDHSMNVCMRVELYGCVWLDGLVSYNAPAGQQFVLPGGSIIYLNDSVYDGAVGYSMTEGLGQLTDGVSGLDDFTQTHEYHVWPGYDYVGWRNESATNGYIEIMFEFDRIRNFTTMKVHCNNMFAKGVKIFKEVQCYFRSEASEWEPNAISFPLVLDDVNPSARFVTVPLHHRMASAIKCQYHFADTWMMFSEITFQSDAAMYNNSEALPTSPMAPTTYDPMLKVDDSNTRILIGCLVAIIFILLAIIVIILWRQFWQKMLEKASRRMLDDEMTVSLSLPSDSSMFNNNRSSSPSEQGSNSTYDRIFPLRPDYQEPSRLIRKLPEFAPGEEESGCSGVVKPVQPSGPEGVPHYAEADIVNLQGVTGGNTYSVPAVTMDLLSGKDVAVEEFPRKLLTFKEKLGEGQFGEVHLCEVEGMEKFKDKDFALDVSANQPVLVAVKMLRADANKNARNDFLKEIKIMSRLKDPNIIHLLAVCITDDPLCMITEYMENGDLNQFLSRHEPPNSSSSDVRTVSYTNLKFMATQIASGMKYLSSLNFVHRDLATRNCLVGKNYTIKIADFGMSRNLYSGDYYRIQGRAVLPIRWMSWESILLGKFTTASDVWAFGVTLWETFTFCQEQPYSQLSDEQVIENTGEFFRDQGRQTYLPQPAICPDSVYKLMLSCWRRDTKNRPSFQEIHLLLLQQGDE
How it was run: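 Cells seeded 48 h in 10% FBS, serum-starved 8 h, then given compound (5% DMSO) with 50 μg/ml chicken collagen II for 16 h at 37 °C. Lysates captured on anti-DDR2 antibody plates; phospho-DDR2 detected with HRP anti-phosphotyrosine antibody by chemiluminescence.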

[3] = biochemical DDR2 autophosphorylation
[4] = 4 nM DDR2 kinase domain, 150 μM ATP, 150 min at 22° C.
[5] = HEK293 transfected with human DDR2, 50 μg/ml chicken collagen II, 16 h

Row | SMILES | IC50 [1, 3] [nM] | IC50 ([2]; cellular phospho-DDR2) [nM] | IC50 [1, 4] [nM] | IC50 [2, 5] [nM]
1 | CNC(=O)c1cc(Oc2ccc(CNC(=O)Nc3ccc(OC)nc3)cc2)ccn1 [compound 227, 4-{4-[3-(6-Methoxy-pyridin-3-yl)-ureidomethyl]-phenoxy}-pyridine-2-carboxylic acid methylamide] | 5500 | 6300 | – | –
2 | CNC(=O)c1cc(Oc2ccc(CNC(=O)Nc3cc(OC)c(Cl)cc3OC)cc2)ccn1 [compound 83, 4-{4-[3-(4-Chloro-2,5-dimethoxy-phenyl)-ureidomethyl]-phenoxy}-pyridine-2-carboxylic acid methylamide] | 760 | 140 | – | –
3 | CNC(=O)c1cc(Oc2ccc(CNC(=O)Nc3c(OC)cc(Cl)c(C)c3Cl)cc2)ccn1 [compound 103, 4-{4-[3-(2,4-Dichloro-6-methoxy-3-methyl-phenyl)-ureidomethyl]-phenoxy}-pyridine-2-carboxylic acid methylamide] | 14000 | 4600 | – | –
4 | CNC(=O)c1cc(Oc2ccc(C(C)NC(=O)Nc3cc(Cl)ccc3OC)cc2)ccn1 (stereo not shown) [compound 72, 4-(4-{1-[3-(5-Chloro-2-methoxy-phenyl)-ureido]-ethyl}-phenoxy)-pyridine-2-carboxylic acid methylamide] | 340 | 74 | – | –
5 | COc1ccc(C(F)(F)F)cc1NC(=O)Nc1ccc(Cc2nc3cc[nH]c(=O)c3[nH]2)cc1 [compound 3] | – | – | 62 | 110
6 | CNC(=O)c1cc(Oc2ccc(CNC(=O)Nc3cc(C)c(Cl)cc3OC)cc2)ccn1 [compound 78, 4-{4-[3-(4-Chloro-2-methoxy-5-methyl-phenyl)-ureidomethyl]-phenoxy}-pyridine-2-carboxylic acid methylamide] | 100 | 24 | – | –
7 | Cn1cc(C(F)(F)F)cc(NC(=O)NCc2ccc(Oc3ccnc4ccc(C(F)(F)F)cc34)cc2)c1=O [compound 2] | – | – | 400 | 5600
8 | CNCCOc1ccccc1NC(=O)NCc1ccc(Oc2ccnc(C(=O)NC)c2)cc1 [compound 169, 4-(4-{3-[2-(2-Methylamino-ethoxy)-phenyl]-ureidomethyl}-phenoxy)-pyridine-2-carboxylic acid methylamide] | 2800 | 1900 | – | –
9 | CNC(=O)c1cc(Oc2ccc(CNC(=O)Nc3cc(C(F)(F)F)ccc3OCCN3CCNCC3)cc2)ccn1 [compound 112, 4-(4-{3-[2-(2-Piperazin-1-yl-ethoxy)-5-trifluoromethyl-phenyl]-ureidomethyl}-phenoxy)-pyridine-2-carboxylic acid methylamide] | 130 | 47 | – | –
10 | Cc1cc(Oc2ccc(CNC(=O)Nc3cc(C(F)(F)F)cnc3Cl)cc2)ccn1 [compound 29] | – | – | 350 | 94
11 | COc1ncc(Cl)cc1NC(=O)NCc1ccc(Oc2ccnc(C)c2)cc1 [compound 27] | – | – | 190 | 42
12 | CNC(=O)c1cc(Oc2ccc(CNC(=O)Nc3ccnc(Cl)c3)cc2)ccn1 [compound 89, 4-{4-[3-(2-Chloro-pyridin-4-yl)-ureidomethyl]-phenoxy}-pyridine-2-carboxylic acid methylamide] | 1000 | 1450 | – | –
13 | Cn1cc(C(F)(F)F)cc(NC(=O)NCc2ccc(Oc3ccnc4[nH]ccc34)cc2)c1=O [compound 3] | – | – | 66 | 20
14 | CNC(=O)c1cc(Oc2ccc(CNC(=O)Nc3cc(Cl)c(C)cc3OC3CCNCC3)cc2)ccn1 [compound 178, 4-(4-{3-[5-Chloro-4-methyl-2-(piperidin-4-yloxy)-phenyl]-ureidomethyl}-phenoxy)-pyridine-2-carboxylic acid methylamide] | 35 | 25 | – | –
15 | CNC(=O)c1cc(Oc2ccc(CNC(=O)Nc3cc(C)ccn3)cc2C)ccn1 [compound 213, 4-{2-Methyl-4-[3-(4-methyl-pyridin-2-yl)-ureidomethyl]-phenoxy}-pyridine-2-carboxylic acid methylamide] | 400 | 205 | – | –
16 | CNCCOc1cc(Cl)c(C)cc1NC(=O)NCc1ccc(Oc2ccnc(C(=O)NC)c2)cc1 [compound 125, 4-(4-{3-[4-Chloro-5-methyl-2-(2-methylamino-ethoxy)-phenyl]-ureidomethyl}-phenoxy)-pyridine-2-carboxylic acid methylamide] | 187 | 52 | – | –
17 | CNCCOc1ccc(S(=O)(=O)C(F)(F)F)cc1NC(=O)NCc1ccc(Oc2ccnc(C(=O)NC)c2)c(C)c1 [compound 189, 4-(2-Methyl-4-{3-[2-(2-methylamino-ethoxy)-5-trifluoromethanesulfonyl-phenyl]-ureidomethyl}-phenoxy)-pyridine-2-carboxylic acid methylamide] | 270 | 115 | – | –
18 | CNC(=O)c1cc(Oc2ccc(CNC(=O)Nc3cc(Cl)c(C)cc3OCC3CCCN3)cc2)ccn1 (stereo not shown) [compound 182, 4-(4-{3-[5-Chloro-4-methyl-2-(pyrrolidin-2-ylmethoxy)-phenyl]-ureidomethyl}-phenoxy)-pyridine-2-carboxylic acid methylamide] | 59 | 30 | – | –
19 | CNC(=O)c1cc(Oc2ccc(CNC(=O)Nc3cc(Cl)c(C)cc3OCCNC(C)C)cc2)ccn1 [compound 183, 4-(4-{3-[5-Chloro-2-(2-isopropylamino-ethoxy)-4-methyl-phenyl]-ureidomethyl}-phenoxy)-pyridine-2-carboxylic acid methylamide] | 89 | 35 | – | –
20 | CNC(=O)c1cc(Oc2ccc(CNC(=O)Nc3cc(C(F)(F)F)c(Cl)cc3OCCN3CCNCC3)cc2)ccn1 [compound 128, 4-(4-{3-[4-Chloro-2-(2-piperazin-1-yl-ethoxy)-5-trifluoromethyl-phenyl]-ureidomethyl}-phenoxy)-pyridine-2-carboxylic acid methylamide] | 91 | 63 | – | –
21 | CNC(=O)c1cc(Oc2ccc(CNC(=O)Nc3cc(C)c(Cl)cc3OCCN)cc2C)ccn1 [compound 144, 4-(4-{3-[2-(2-Amino-ethoxy)-4-chloro-5-methyl-phenyl]-ureidomethyl}-2-methyl-phenoxy)-pyridine-2-carboxylic acid methylamide] | 49 | 53 | – | –
22 | CNCCOc1ccc(C(F)(F)F)cc1NC(=O)NCc1ccc(Oc2ccnc(C(=O)NC)c2)c(C)c1 [compound 146, 4-(2-Methyl-4-{3-[2-(2-methylamino-ethoxy)-5-trifluoromethyl-phenyl]-ureidomethyl}-phenoxy)-pyridine-2-carboxylic acid methylamide] | 33 | 15 | – | –
23 | CNC(=O)c1cc(Oc2ccc(CNC(=O)Nc3cc(Cl)ccc3OC)cc2F)ccn1 [compound 232, 4-{4-[3-(5-Chloro-2-methoxy-phenyl)-ureidomethyl]-2-fluoro-phenoxy}-pyridine-2-carboxylic acid methylamide] | 52 | 19 | – | –
24 | CNC(=O)c1cc(Oc2ccc(CNC(=O)Nc3cc(C)c(Cl)cc3OCCN3CCNCC3)cc2C)ccn1 [compound 143, 4-(4-{3-[4-Chloro-5-methyl-2-(2-piperazin-1-yl-ethoxy)-phenyl]-ureidomethyl}-2-methyl-phenoxy)-pyridine-2-carboxylic acid methylamide] | 77 | 66 | – | –
25 | CNC(=O)c1cc(Oc2ccc(CNC(=O)Nc3cc(C)cnc3OC)cc2C)ccn1 [compound 20] | – | – | 110 | 41
26 | CNC(=O)c1cc(Oc2ccc(CNC(=O)Nc3cc(Cl)c(C)cc3OCCN3CCNCC3)cc2)ccn1 [compound 179, 4-(4-{3-[5-Chloro-4-methyl-2-(2-piperazin-1-yl-ethoxy)-phenyl]-ureidomethyl}-phenoxy)-pyridine-2-carboxylic acid methylamide] | 160 | 38 | – | –
